Measurements reported in publication PMC12469269, “Investigating SMR Peptide Interactions with Breast Cancer-Associated Proteins” (International Journal of Molecular Sciences, 2025).

Test system: Jurkat T cells
Assay: EV secretion, Nef-GFP (Figure 6A), Jurkat T cells
Assay type: cell-based
Details: 349.6 nM SMRwt-CPP or 357.27 nM VIMwt-CPP, 24 h
Description: To investigate whether SMRwt and VIMwt peptides can suppress extracellular vesicle (EV) secretion, Jurkat T cells were co-transfected with wild-type Nef-GFP and treated with either SMRwt-CPP (349.6 nM) or VIMwt-CPP (357.27 nM) peptides. GFP fluorescence in the culture media was used as a proxy for Nef-associated EV release after 24 h of incubation.
Figure 6 SMRwt and VIMwt peptides decrease extracellular vesicle secretion in Jurkat T cells and breast cancer cells. (A) Jurkat T cells were co-transfected with 1 µg of wild-type Nef-GFP plasmid and treated with either 349.6 nM SMRwt-CPP or 357.27 nM VIMwt-CPP peptides. After 24 h at 37 °C, culture media were collected and assayed for extracellular vesicle (EV) secretion using GFP fluorescence as a proxy. (B,C) MDA-MB-231 and MCF-7 breast cancer cells were treated with either 349.6 nM SMRwt-CPP or 357.27 nM VIMwt-CPP peptides for 24 h at 37 °C. Cells were then labeled with 5 µM N-Rh-PE at 4 °C for 1 h, washed, and incubated in fresh media for an additional 24 h. Supernatants were assayed for EV secretion using N-Rh-PE fluorescence. Bar graphs show relative EV levels. Data represent mean ± SD from three independent experiments. Statistical comparisons were performed using appropriate tests; p-values are indicated. […]

**Q.** How did the “p, peptide vs Nef-GFP alone, EV secretion” value turn out when “H-LYEEEMREGRKKRRQRRRPPQ - OH [VIMwt-CPP]” was run?
**A.** < 0.0006
